According to patent US20180098970A1, “USE OF […] THE TREATMENT OF NEURO[…]” (Afecta Pharmaceuticals, Inc., priority 2008, published 2018):
Read-outs that look alike come from different tables or passages of the source.

How the values were obtained:
hDAT = target: T1, hDAT (Homo sapiens, UniProt Q01959); assay: competition binding assay, recombinant human DAT in HEK-293 cell membranes; conditions: [125I]RTI-55 0.2 nM, ± mean standard error, 3 trials, read-out: Inhibition of binding at human monoamine transporters (Ki) hDAT
T1 construct: expressed in transfected cells; host or cells: HEK-293 (HEK-hDAT), membranes
T1 sequence (Q01959 whole entry): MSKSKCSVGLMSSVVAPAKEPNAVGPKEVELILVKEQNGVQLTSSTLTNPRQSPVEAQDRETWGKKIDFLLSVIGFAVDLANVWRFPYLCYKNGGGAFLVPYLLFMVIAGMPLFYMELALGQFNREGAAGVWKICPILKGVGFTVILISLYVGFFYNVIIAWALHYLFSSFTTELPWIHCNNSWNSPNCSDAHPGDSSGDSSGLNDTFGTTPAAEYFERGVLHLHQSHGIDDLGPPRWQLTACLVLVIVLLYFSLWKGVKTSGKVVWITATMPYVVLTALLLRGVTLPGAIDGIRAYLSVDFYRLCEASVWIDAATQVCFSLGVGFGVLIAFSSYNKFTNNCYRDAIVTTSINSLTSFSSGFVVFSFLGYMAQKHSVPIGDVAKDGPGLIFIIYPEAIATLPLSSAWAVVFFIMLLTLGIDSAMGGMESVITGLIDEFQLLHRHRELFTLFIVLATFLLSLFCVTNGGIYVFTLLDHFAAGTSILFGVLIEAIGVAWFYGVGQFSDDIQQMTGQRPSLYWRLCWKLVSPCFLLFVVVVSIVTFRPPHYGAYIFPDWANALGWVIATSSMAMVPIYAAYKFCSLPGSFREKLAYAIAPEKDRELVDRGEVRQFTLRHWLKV
Excerpt: (§1) These transporters control the amount of the three monoamines in the TMMS and therefore regulate fast excitatory and inhibitory neurotransmission in the CNS. Thus, the relative amounts of all three of these monoamines in the TMMS of brain controls mammalian neurobehaviors. To determine the Ki of the representative compounds; recombinant human monoamine transporters (DAT, SERT and NET) were expressed in HEK-293 cells as described in Eshleman et al. (1999). The HEK-hDAT, HEK-hSERT and HEK-hNET cells were incubated in modified Eagle's medium or Dulbecco's modified Eagle's medium exactly as described by Eshleman et al. Cells were grown until confluent on 150 mm diameter tissue culture dishes in a humidified 10% CO2 environment at 37° C. […] Paroxetine (SERT), [125sup I] RTI-55 binding (DAT) and (NET). The binding assays contained an aliquot of membranes prepared from the HEK cell lines expressing the recombinant human transporters (≈12-30 μg protein, depending on the cell line, adjusted to bind <10% of the total radioactivity added to the assay), [125supI] RTI-55 (0.2 nM final concentration) or [3supH] Paroxetine (0.4 nM final concentration) along with Krebs-HEPES assay buffer to yield a final volume of 250 μL. Specific binding was defined as the difference in binding observed in the presence and absence of 10 μM nomifensine (HEK-hDAT), 10 uM desipramine HEK-NET) or 10 μM imipramine (HEK-hSERT). The reaction was incubated for 90 min at room temperature in the dark and was terminated by vacuum filtration. Competition experiments were conducted with duplicate determinations.

hNET = target: T2, hNET (Homo sapiens, UniProt P23975); assay: competition binding assay, recombinant human NET in HEK-293 cell membranes
T2 construct: expressed in transfected cells; host or cells: HEK-293 (HEK-hNET), membranes
T2 sequence (P23975 whole entry): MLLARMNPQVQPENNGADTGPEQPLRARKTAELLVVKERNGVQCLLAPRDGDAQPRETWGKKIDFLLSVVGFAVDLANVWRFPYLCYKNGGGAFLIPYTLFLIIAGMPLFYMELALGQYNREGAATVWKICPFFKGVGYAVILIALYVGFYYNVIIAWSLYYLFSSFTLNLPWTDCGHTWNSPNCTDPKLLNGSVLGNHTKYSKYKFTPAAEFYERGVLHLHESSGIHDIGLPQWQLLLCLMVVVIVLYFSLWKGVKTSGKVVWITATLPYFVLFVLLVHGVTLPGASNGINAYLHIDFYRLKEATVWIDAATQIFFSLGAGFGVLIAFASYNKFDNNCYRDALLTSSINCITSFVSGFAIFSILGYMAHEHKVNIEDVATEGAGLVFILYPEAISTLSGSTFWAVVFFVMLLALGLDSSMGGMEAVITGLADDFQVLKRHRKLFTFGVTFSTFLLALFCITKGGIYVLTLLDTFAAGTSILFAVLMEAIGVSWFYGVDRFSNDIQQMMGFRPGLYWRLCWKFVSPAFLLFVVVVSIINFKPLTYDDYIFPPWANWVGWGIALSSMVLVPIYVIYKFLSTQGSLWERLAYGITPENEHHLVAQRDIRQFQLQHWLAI
Excerpt: as §1

hSERT = target: T3, hSERT (Homo sapiens, UniProt P31645); assay: competition binding assay, recombinant human SERT in HEK-293 cell membranes
T3 construct: expressed in transfected cells; host or cells: HEK-293 (HEK-hSERT), membranes
T3 sequence (P31645 whole entry): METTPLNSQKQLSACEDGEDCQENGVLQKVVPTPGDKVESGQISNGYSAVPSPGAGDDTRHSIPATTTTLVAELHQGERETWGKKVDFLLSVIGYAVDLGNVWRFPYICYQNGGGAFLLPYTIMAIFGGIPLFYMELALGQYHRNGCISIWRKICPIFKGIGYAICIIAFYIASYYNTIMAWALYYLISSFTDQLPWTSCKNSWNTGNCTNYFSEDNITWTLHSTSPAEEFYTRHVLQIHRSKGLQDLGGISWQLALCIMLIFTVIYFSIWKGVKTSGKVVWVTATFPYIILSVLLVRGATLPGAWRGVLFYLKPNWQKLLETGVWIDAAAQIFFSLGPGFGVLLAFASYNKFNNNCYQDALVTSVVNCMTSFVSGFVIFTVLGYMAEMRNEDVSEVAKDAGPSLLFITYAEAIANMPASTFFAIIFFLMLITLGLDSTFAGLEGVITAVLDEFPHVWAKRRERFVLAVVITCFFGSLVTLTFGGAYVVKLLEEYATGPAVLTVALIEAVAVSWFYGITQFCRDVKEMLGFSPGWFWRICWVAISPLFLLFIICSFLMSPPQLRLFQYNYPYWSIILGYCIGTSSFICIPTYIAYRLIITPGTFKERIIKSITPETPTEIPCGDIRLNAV
Excerpt: as §1

[1] = system: obsessive compulsive behavior; assay: clinical case study, obsessive compulsive behavior (Example 8); format: in vivo, human; conditions: person, Mazindol 5 mg per day
Excerpt: patient five is a person who developed compulsive behaviors after the birth of their first child. […] They washed all food even if it had been pre-packaged and placed in specific foods in specific locations in their pantry and refrigerator which they were sure were the “safest: They wore gloves when they left the house and made […] children do so as well. They sprayed disinfectant on everything […] or […] children came in contact with and refused in eat in restaurants. Prior to their pregnancy they had been diagnosed with polycystic ovary disease and need treatment in order to conceive. They were told that they were also “borderline diabetic”. […] Shortly, after beginning their therapy they reported that “mood was better” and they didn't “feel anxious” about bacteria anymore. After three weeks of therapy with Mazindol they stopped wearing gloves (and forcing […] children to do so) and using disinfectant. Their spouse reported that they were a “new […]” and they were no allowed to put the groceries away without having to place it in particular places.

[2] = system: reward deficiency disorder; assay: clinical case study, reward deficiency disorder (Example 6); format: in vivo, human; conditions: person, Mazindol 2 mg BID, over several weeks
Excerpt: W. K. a person had suffered from alcohol abuse, sexual addiction and pathologic gambling for 10 years. They had been in counseling, Alcoholic Anonymous, Gamblers Anonymous on and off over the past 10 years with minimal effects. They had lost their marriage and several jobs as result of their behavioral problems. They had been treated with antidepressants, but they had been of little help. […] In addition, they reported that the thrill they have always gotten from gambling was no long present and they no longer felt compulsion to gamble.

dementia = assay: clinical case study, dementia with motor impairment (Example 7); format: in vivo, human; conditions: person, Mazindol 8 mg per day, after 2 weeks of treatment
Excerpt: R 0 is a person had suffered from motor impairment and cognitive decline. They developed frank dementia and required institutionalization and nursing care. […] Based on reports by their care givers their became more aware of surrounding and was able to recognize family member for the first time in one year and was not “hearing and seeing things that were not there”.

chronic fatigue syndrome = assay: clinical case study, chronic fatigue syndrome (Example 5); format: in vivo, human; conditions: person, Mazindol 5.0 mg per day, after 10 days of therapy
Excerpt: P. C. a person had suffered from chronic fatigue syndrome, “chemical sensitivity and for one year with marked fatigue each day beginning in the early or mid afternoon. There has been some accompanying muscle aching, but no symptoms of central neurosystem involvement. Their functioning at work and at home had been seriously impaired. EBV titers were positive.

symptoms of ADHD = assay: clinical case study, ADHD (Example 3); format: in vivo, human
Excerpt: patient two is a person. […], they were also being treated with risperidone which continued for 2 years. […] Subsequently, the risperidone was then completely discontinued without any recurrence of symptoms of ADHD (i.e. poor attention span, hyperactivity, or inappropriate behavior).

Tourette syndrome = assay: clinical case study, Tourette syndrome with ADHD (Example 4); format: in vivo, human; conditions: patient, Mazindol 7.5 mg per day started
Method: patient one is a person. They began to have constant vocal tics. Motor tics started […], consisting of licking their lips, rolling their eyes, hand and foot tics. They were diagnosed as having Tourette syndrome. […], the major problems were with their tics, outbursts and lack of control. Despite treatment with methylphenidate 20 mg twice a day (bid), haloperidol 0.5 mg and paroxetine 10 mg, they were in special school and was suffering from uncountable motor and vocal tics everyday during waking hours and with outbursts of shouting, coprolalia and episodes of self-mutilation. coprolabia, lying, hitting things and people, and extremely oppositional.

[3] = [125I]RTI-55 0.2 nM, HEK-hNET membranes, ± mean standard error, 3 trials, read-out: Inhibition of binding at human monoamine transporters (Ki) hNET
[4] = [3H]Paroxetine 0.4 nM, HEK-hSERT membranes, ± mean standard error, 3 trials, read-out: Inhibition of binding at human monoamine transporters (Ki) hSERT

## OC1(c2ccc(Cl)c(Cl)c2)c2ccccc2C2=NCCN21 (stereo not drawn) [Cpd 1, 5-(3,4-dichlorophenyl)-2,5-dihydro-5H-imidazo(2,1-a)isoindol-5-ol]
hDAT
  Ki: 0.025 ± 0.0048 µM
hNET; [3]
  Ki: 0.363 ± 0.041 µM
hSERT; [4]
  Ki: 0.101 ± 0.0079 µM

## Clc1ccc(C2c3ccccc3C3=NCCN32)cc1 (stereo not drawn) [Cpd 2, 5-(4-Chlorophenyl)-2,5-dihydro-5H-imidazo(2,1-a)is oindole]
hDAT
  Ki: 0.045 ± 0.011 µM
hNET; [3]
  Ki: 0.056 ± 0.019 µM
hSERT; [4]
  Ki: 0.014 ± 0.005 µM

## Clc1ccc(C2c3ccccc3C3=NCCN32)cc1 (stereo not drawn) [Cpd 3, 5-(4-Chlorophenyl)-2,3-dihydro-5H-imidazo (2,1-a)is oindole]
hDAT
  Ki: 0.111 ± 0.0073 µM
hNET; [3]
  Ki: 0.089 ± 0.018 µM
hSERT; [4]
  Ki: 0.312 ± 0.045 µM

## OC1(c2ccc(Cl)cc2)c2ccccc2C2=NCCN21 (stereo not drawn) [mazindol, 5-(4-Chlorophenyl)-2,5-dihydro-5H-imidazo(2,1-a)is oindol-5-ol]
[1]
  clinical response of obsessive compulsive behavior: relief of their obsessive compulsive behavior
[2]
  clinical response of drinking and gambling behavior: able to completely stop drinking after 5 weeks
dementia
  clinical response of motor function and dementia: improvement of their motor function, and their dementia
hNET
  Ki: 0.024 ± 0.002 µM
Chronic fatigue syndrome
  clinical response of fatigue and muscle ache: complete relief of their fatigue and muscle ache symptoms
Symptoms of ADHD; Mazindol 2.5 mg/day as sole agent, over the next 3 years
  recurrence of ADHD symptoms on maintenance: without the return of any symptoms of ADHD
Symptoms of ADHD; patient, Mazindol 2.5 mg BID started, within 2 months
  clinical response of ADHD symptoms: improved attention span, loss of hyperactivity
Tourette syndrome
  clinical response of tics, outbursts and related symptoms: significant improvement in these symptoms
hSERT
  Ki: 0.056 ± 0.009 µM
